# According to US5460697A, “Method of pulping wood chips with a fungi using sulfite salt-treated wood chips” (priority 1994, dated 1995):
# “Also recorded” adds a separate entry of the source.
# Tests used:
# [1] = system: indigenous microorganisms; test: Contaminants level of sodium bisulfite-soaked aspen chips (plating before inoculation and at harvest); type: cell-based, endogenous microorganisms of aspen wood chips; conditions: for contaminants level at harvest (in words): fungus-treated chips with sodium bisulfite
# Procedure: Three batches of aspen wood chips were prepared, each batch containing 1800 g dry weight of chips. One batch was soaked in 18 kg of water containing no sodium bisulfite. A second batch was soaked in 18 kg of water containing 28.125 g of sodium bisulfite. A third batch was soaked in 18 kg of water containing 56.250 g of sodium bisulfite. After the chips had soaked, we performed our experiments on 1600 g of chips (dry weight basis). The soaking was done at room temperature for about 1 hour. After soaking, water or sodium bisulfite solution was drained through a mesh. Based on the amount of water or sodium bisulfite solution absorbed by the chips, we calculated that 1600 g dry weight of chips retained about 600 or 1200 μg/ml of sodium bisulfite. Thus, there were three treatments: 1) chips without sodium bisulfite (water only), 2) chips containing 600 μg/ml of sodium bisulfite, and 3) chips containing 1200 μg/ml of sodium bisulfite.
# Bioreactors containing soaked chips were left at room temperature for 48 h. U.S. Pat. No. 5,055,159 describes a suitable bioreactor. (U.S. Pat. No. 5,055,159 is hereby incorporated by reference.) Prior to inoculation, chips were pulled out from these bioreactors and plated on potato dextrose and tryptic soya agar plates to measure the contaminants level. These plates were incubated at 27° C. and 65% relative humidity for 24 h.
# At harvest, fungus-treated chips with and without sodium bisulfite soaking were plated on potato dextrose and tryptic soya agar plates to determine the contaminants level. These plates were incubated at 27° C. and 65% relative humidity for 72 h. […] High level of sodium bisulfite (1200 μg/ml) caused only 1.7% wood loss, saved 18.4% of electrical energy, improved tear index by 15%, and fiber length by 26% as compared to the control.
# We repeated the experiment described above with a four-week incubation. Four batches of aspen wood chips were prepared, each batch containing 3600 g dry weight of chips. One batch was soaked in 36 kg of water containing no sodium bisulfite. Second, third and fourth batches each were soaked in 36 kg of water containing 112.50 g of sodium bisulfite at room temperature for about 1 hour. After soaking, water or sodium bisulfite solution was drained through a mesh. Based on the amount of water or sodium bisulfite solution soaked, we calculated that each batch of 1600 g dry weight of chips retained about 1300 μg/ml of sodium bisulfite. Bioreactors containing soaked chips were left at room temperature for 48 h. The following eight treatments were made:
# Prior to inoculation, chips were pulled out from the bioreactors and plated on potato dextrose and tryptic soya agar plates to determine the contaminants level. These plates were incubated at 27° C. and 65% relative humidity for 24 h. […]
# [2] = system: indigenous microorganisms; test: Effect of sulfite salts on indigenous microorganisms of unsterilized wood chips (plating); type: cell-based, indigenous microorganisms of unsterilized aspen wood chips
# Procedure: Aspen wood chips (50 g O.D. basis) were soaked in 500 ml of water containing either 0 mg, 781 mg or 1562 mg sodium bisulfite for about 1 hour at room temperature. After soaking, water was drained from the chips.
# During the 1 hour soaking the chips soaked up about 31 ml of water. Therefore, the final moisture content of wood was about 61% (wet weight basis) and the final concentration of each chemical on water basis was about 0 μg/ml, 600 μg/ml and 1200 μg/ml.
# Three chips were pulled randomly from each flask and plated on potato dextrose agar and tryptic soy agar plates. These plates were incubated at 27° C. for 24 or 27 h and the contaminants were visually observed.
# A panel of other sulfur-containing chemicals were analyzed for their ability to inhibit the growth of indigenous microorganisms on unsterilized wood chips in the manner described above. Table 2 describes the various concentrations of these chemicals and the percent inhibition relative to control plates observed.
# [3] = system: C. subvennispora CZ-3; test: Effect of sodium bisulfite on radial growth of white-rot fungi; type: cell-based, C. subvermispora; conditions: 500 μg/ml
# Procedure: (§1) 2% agar was added to the medium. The medium was autoclaved for 15 min. and the medium was poured into petri dishes. These plates were then inoculated with a plug cut into 8-mm diameter plugs from a petri dish containing a 5-day-old culture of P. chrysosporium or a petri dish containing a 10-day-old culture of another white-rot fungi. P. chrysosporium-inoculated plates were incubated at 39° C. Plates inoculated with other fungi were incubated at 27° C.
# [4] = system: C. subvennispora L-14807-sp; test: as above; type: cell-based, C. subvermispora; conditions: 500 μg/ml
# Procedure: as §1
# [5] = system: C. subvennispora FP-90031-sp; test: as above; type: cell-based, C. subvermispora; conditions: 500 μg/ml
# Procedure: as §1
# [6] = system: C. subvennispora FP-104027-T; test: as above; type: cell-based, C. subvermispora; conditions: 500 μg/ml
# Procedure: as §1
# [7] = system: C. subvennispora FP-105752-sp; test: as above; type: cell-based, C. subvermispora; conditions: 500 μg/ml
# Procedure: as §1
# [8] = system: C. subvennispora L-15225-sp; test: as above; type: cell-based, C. subvermispora; conditions: 500 μg/ml
# Procedure: as §1
# [9] = system: C. subvennispora L-6133-sp; test: as above; type: cell-based, C. subvermispora; conditions: 500 μg/ml
# Procedure: as §1
# [10] = system: white-rot fungi; test: Effect of sodium bisulfite on radial growth of white-rot fungi (summary); type: cell-based, white-rot fungi listed in Table 7; conditions: 500 μg/ml, 72 and 96 h
# Procedure: as §1
structure (smiles),measurement,setting,value
O=S([O-])O.[Na+] [Sodium Bisulfite],endogenous microorganisms on chips (in words),"[1]; 1200 μg/ml, prior to inoculation, 48 h after soaking, 2-week experiment",no endogenous microorganisms
same,inhibition of microorganisms prior to inoculation (in words),"[1]; 1300 μg/ml, 4-week experiment",completely inhibited microorganisms
same,contaminants level at harvest (in words),[1]; 2 weeks,almost no contamination
same,contaminants level at harvest (in words),[1]; 4 weeks,almost no contamination
same,Inhibition Relative to control,[2]; 600 μg/ml,95%
same,Inhibition Relative to control,[2]; 1200 μg/ml,100%
same,inhibition of contaminants (in words),"[2]; 1200 μg/ml, potato dextrose and tryptic soy agar plates",completely inhibited all contaminants; also recorded: no colonies on the plate
same,first test: whether the salt inhibits growth of indigenous microorganisms,[2]; pass / not pass,passed the first test
same,inhibition of growth of indigenous microorganisms (in words),"[2]; unsterilized wood chips, overall statement",successfully inhibited the growth of microorganisms; also recorded: inhibited all wood contaminants; also recorded: inhibited the growth of indigenous microorganisms
same,Radial growth 72h ± SD,[3]; 72 h,2.37 ± .12 cm
same,Radial growth 96h ± SD,[3]; 96 h,4.37 ± .15 cm
same,Radial growth 72h ± SD,[4]; 72 h,2.60 ± .30 cm
same,Radial growth 96h ± SD,[4]; 96 h,5.07 ± .31 cm
same,Radial growth 72h ± SD,[5]; 72 h,3.20 ± .20 cm
same,Radial growth 96h ± SD,[5]; 96 h,5.77 ± .31 cm
same,Radial growth 72h ± SD,[6]; 72 h,3.63 ± .23 cm
same,Radial growth 96h ± SD,[6]; 96 h,6.07 ± .46 cm
same,Radial growth 72h ± SD,[7]; 72 h,2.13 ± .06 cm
same,Radial growth 96h ± SD,[7]; 96 h,4.00 ± 00 cm
same,Radial growth 72h ± SD,[8]; 72 h,1.63 ± .40 cm
same,Radial growth 96h ± SD,[8]; 96 h,4.20 ± .72 cm
same,Radial growth 72h ± SD,[9]; 72 h,2.37 ± .25 cm
same,Radial growth 96h ± SD,[9]; 96 h,4.80 ± .20 cm
same,radial growth (in words),[10],increased the radial growth
